Measured values reported in patent US20070142411A1, “Use of cyclooxygenase-2 selective inhibitors for the treatment of schizophrenic disorders” (priority 2003, published 2007).

Key:
[1] = molecular target: T1, microsomal h-COX2 (Homo sapiens, UniProt P35354); assay: Microsomal assay, h-COX2 preparation from baculovirus infected SF9 cells; assay type: biochemical; conditions: stated in text under the microsomal assay; read-out: IC50 values for inhibition of COX-2
T1 construct: made in house; host or cells: baculovirus infected SF9 cells (microsomal preparation)
T1 sequence (P35354 18-604): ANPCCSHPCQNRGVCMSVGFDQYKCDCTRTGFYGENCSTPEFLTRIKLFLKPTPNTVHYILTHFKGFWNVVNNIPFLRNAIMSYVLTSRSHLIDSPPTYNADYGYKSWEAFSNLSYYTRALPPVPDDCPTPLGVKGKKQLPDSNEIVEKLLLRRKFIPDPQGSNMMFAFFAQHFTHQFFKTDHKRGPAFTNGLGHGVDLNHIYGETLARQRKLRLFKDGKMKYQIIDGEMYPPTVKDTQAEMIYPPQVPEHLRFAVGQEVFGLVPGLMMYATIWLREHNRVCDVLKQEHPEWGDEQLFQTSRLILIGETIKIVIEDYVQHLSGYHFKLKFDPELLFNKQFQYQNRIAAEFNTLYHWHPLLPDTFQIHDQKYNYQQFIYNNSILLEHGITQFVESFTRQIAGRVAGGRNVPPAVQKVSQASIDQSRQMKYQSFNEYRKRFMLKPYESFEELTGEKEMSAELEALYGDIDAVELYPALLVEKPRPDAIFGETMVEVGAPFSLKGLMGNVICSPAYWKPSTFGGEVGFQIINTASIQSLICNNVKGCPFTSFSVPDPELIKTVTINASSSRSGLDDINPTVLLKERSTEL
Protocol: Inhibitory activity against microsomal h-COX2 was assessed against a microsomal preparation from baculovirus infected SF9 cells. An aliquot of microsomal preparation was thawed slowly on ice and a 1/40,000 dilution prepared from it into the assay buffer (sterile water, degassed with argon containing 100 mM HEPES (pH 7.4), 10 mM EDTA (pH7.4), 1 mM phenol, 1 mM reduced glutathione, 20 mg/ml gelatin and 0.001 mM Hematin). Once diluted the enzyme solution was then sonicated for 5 seconds (Branson sonicator, setting 4, 1 cm tip) to ensure a homogeneous suspension. […] Plates were then mixed and incubated at room temperature for 1 hour. Following the incubation period, 40 μl of 0.5 μM arachidonic acid was added to each well to give a final concentration of 0.1 μM. Plates were then mixed and incubated for exactly 10 minutes (room temperature) prior to addition of 25 μl 1M HCl (hydrochloric acid) to each well to stop the reaction. 25 μl of 1M NaOH (sodium hydroxide) was then added to each well to neutralise the solution prior to determination of PGE2 levels by enzyme immunoassay (EIA).

[2] = molecular target: T2, human COX-2 (Homo sapiens, UniProt P35354); assay: Inhibition of PGE2 release in COS cells stably transfected with human COX-2; assay type: cell-based; conditions: COS cells transfected with human COX-2, 30 μM arachidonic acid
T2 construct: expressed in transfected cells; host or cells: COS cells (stably transfected)
T2 sequence (P35354 18-604): T1 sequence (P35354 18-604)

[3] = molecular target: T3, human COX-1 (Homo sapiens, UniProt P23219); assay: Inhibition of PGE2 release in COS cells stably transfected with human COX-1; assay type: cell-based; conditions: COS cells transfected with human COX-1, 30 μM arachidonic acid
T3 construct: expressed in transfected cells; host or cells: COS cells (stably transfected)
T3 sequence (P23219 24-599): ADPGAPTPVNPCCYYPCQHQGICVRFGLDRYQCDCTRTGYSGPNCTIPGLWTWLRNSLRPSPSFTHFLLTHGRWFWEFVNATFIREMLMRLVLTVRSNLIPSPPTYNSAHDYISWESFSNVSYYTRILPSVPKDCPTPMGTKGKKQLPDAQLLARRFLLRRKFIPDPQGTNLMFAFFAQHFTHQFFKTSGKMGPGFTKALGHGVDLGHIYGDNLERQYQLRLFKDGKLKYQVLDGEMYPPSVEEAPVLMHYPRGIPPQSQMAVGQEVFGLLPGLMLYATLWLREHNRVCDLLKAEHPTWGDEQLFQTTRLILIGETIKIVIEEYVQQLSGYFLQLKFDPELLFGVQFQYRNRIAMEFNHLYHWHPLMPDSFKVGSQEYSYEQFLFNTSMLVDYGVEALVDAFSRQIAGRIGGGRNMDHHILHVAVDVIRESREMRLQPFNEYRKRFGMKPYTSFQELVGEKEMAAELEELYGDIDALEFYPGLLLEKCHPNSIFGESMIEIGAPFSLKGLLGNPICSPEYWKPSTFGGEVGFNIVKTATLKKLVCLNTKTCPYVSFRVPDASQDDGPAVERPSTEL
Protocol: 24 Hours prior to experiment, COS cells were transferred from the 175 cm^2 flasks in which they were grown, onto 24-well cell culture plates using the following procedure. The incubation medium (Dulbecco's modified eagles medium (DMEM) supplemented with heat-inactivated foetal calf serum (10% v/v), penicillin (100 IU/ml), streptomycin (100 μg/ml) and genebcin (600 μg/ml)) was removed from a flask of confluent cells (1 flask at confluency contains approximately lx107 cells). 10 mI of phosphate buffered saline (PBS) was added to the flask to wash the cells. Having discarded the PBS, cells were then rinsed in 10 ml trypsin for 20 seconds, after which the trypsin was removed and the flask placed in an incubator (37°) for 1-2 minutes unbil cells became detached from the flask. The flask was then removed from the incubator and cells resuspended in 10 ml of fresh incubation medium. The contents of the flask was transferred to a 250 ml sterile container and the volume of incubation medium subsequently made up to 100 ml. […] If more than 1 flask of cells were required, the cells from the individual flasks were combined before being dispensed into the 24-well plates.
Following the overnight incubation, the incubation medium was completely removed from the 24-well cell culture plates and replaced with 250 μl fresh DMEM (37° C.). The test compounds were made up to 250× the required test concentration in DMSO and were added to the wells in a volume of 1 μl. […] Plates were then incubated for a further 15 minutes, after which the incubation medium was removed from each well of the plates and stored at −20° C., prior to determination of prostaglandin E2 (PGE2) levels using enzyme immunoassay. […] The selectivity ratio of inhibition of COX-1 versus COX-2 was calculated by comparing respective IC50 values.

SMILES	IC50 [1]	IC50 [2]	IC50 [3]
Cc1cc(NCc2cnn(C)c2)nc(-c2ccc(S(C)(=O)=O)cc2)c1 [Example 3.3, 4-methyl-N-[(1-methyl-1H-pyrazol-4-yl)methyl]-6-[4-(methylsulfonyl)phenyl]-2-pyridinamine]	≤ 500 nM		
CCOc1ccc(-c2nn3ncccc3c2-c2ccc(S(C)(=O)=O)cc2)cc1 [2.3(ii), 2-(4-Ethoxy-phenyl)-3-(4-methanesulfonyl-phenyl)-pyrazolo[1,5-b]pyridazine]		3 nM	
CS(=O)(=O)c1ccc(-c2cc(C(F)(F)F)cc(NC3CCCCC3)n2)cc1 [Example 3.1, N-cyclohexyl-4-(trifluoromethyl)-6-[4-(methylsulfonyl)phenyl]pyridine-2-amine]	≤ 500 nM		
COc1ccc(-c2nn3ncccc3c2-c2ccc(S(C)(=O)=O)cc2)cc1 [2.2(ii), 3-(4-Methanesulfonyl-phenyl)-2-(4-methoxy-phenyl)-pyrazolo[1,5-b]pyridazine]			3.88 µM
CCOc1ccc(-c2nn3ncccc3c2-c2ccc(S(N)(=O)=O)cc2)cc1 [2.6(iv), 4-[2-(4-Ethoxy-phenyl)-pyrazolo[1,5-b]pyridazin-3-yl]-benzenesulfonamide]		0.44 nM	3.83 µM
CS(=O)(=O)c1ccc(-c2cc(C(F)(F)F)nc(Oc3ccc(F)cc3)n2)cc1 [Example 1.1, 2-(4-Fluorophenoxy)-4-[4-(methylsulfonyl)phenyl]-6-(tiifluoromethyl)pyrimidine]		< 1 nM	81.3 µM
CS(=O)(=O)c1ccc(-c2c(-c3ccc(F)cc3)nn3nc(S(C)(=O)=O)ccc23)cc1 [2.4(iii), 2-(4-Fluoro-phenyl)-6-methanesulfonyl-3-(4-methanesulfonyl-phenyl)-pyrazolo[1,5-b]pyridazine]		370 nM	
COc1ccc(Oc2nc(-c3ccc(S(C)(=O)=O)cc3)cc(C(F)(F)F)n2)cc1 [Example 1.3]		4 nM	2.92 µM
